In US20230022157A1 (Achillion Pharmaceuticals, Inc., priority 2018, published 2023):

molecular target: T1, Human Factor D (Homo sapiens, UniProt P00746); assay: Human Factor D Assay; assay type: biochemical; settings: Human Factor D 80 nM, substrate Z-L-Lys-SBzl, assay of Example 3; read-out: IC50 (Stars)
T1 construct: purified from human serum; purchased Complement Technology, Inc; host or cells: human serum (natural protein, not recombinant)
In short: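 Serum-purified human factor D (80 nM final) preincubated 5 min at room temperature with test compound in 50 mM Tris, 1M NaCl, pH 7.5. Z-L-Lys-SBzl substrate and DTNB then added, each at 100 μM final. IC50 from nonlinear regression of reaction rate against compound concentration.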

T1 sequence (P00746 26-253): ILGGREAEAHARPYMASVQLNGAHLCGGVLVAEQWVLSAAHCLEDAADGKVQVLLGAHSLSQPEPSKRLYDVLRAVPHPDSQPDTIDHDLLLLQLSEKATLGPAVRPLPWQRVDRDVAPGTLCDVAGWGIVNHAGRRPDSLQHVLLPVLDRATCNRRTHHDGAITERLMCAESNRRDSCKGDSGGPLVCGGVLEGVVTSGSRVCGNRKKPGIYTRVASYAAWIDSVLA

Row | IC50 [µM] | SMILES
1 | < 1 | CC(=O)c1nn(CC(=O)N2[C@H](C(=O)Nc3nc(Br)ccc3C)C[C@@]3(C)C[C@@H]23)c2c(C)cc(-c3cnc(C)nc3O)cc12 [Compound 28, (1R,3S,5R)-2-(2-(3-acetyl-5-(4-hydroxy-2-methylpyrimidin-5-yl)-7-methyl-1H-indazol-1-yl)acetyl)-N-(6-bromo-3-methylpyridin-2-yl)-5-methyl-2-azabicyclo[3.1.0]hexane-3-carboxamide]
2 | < 1 | CC(=O)c1nn(CC(=O)N2[C@H](C(=O)N[C@H](C)CC(C)C)C[C@@]3(C)C[C@@H]23)c2ccc(-c3cnc(C)nc3)cc12 [Compound 18, (1R,3S,5R)-2-(2-(3-Acetyl-5-(2-methylpyrimidin-5-yl)-1H-indazol-1-yl)acetyl)-5-methyl-N—((R)-4-methylpentan-2-yl)-2-azabicyclo[3.1.0]hexane-3-carboxamide]
3 | < 1 | CC(=O)c1nn(CC(=O)N2[C@H](C(=O)Nc3nc(Br)ccc3C)C[C@@]3(CO)C[C@@H]23)c2ccc(-c3cnc(CO)nc3)cc12 [Compound 32, (1R,3S,5S)-2-(2-(3-Acetyl-5-(2-(hydroxymethyl)pyrimidin-5-yl)-1H-indazol-1-yl)acetyl)-N-(6-bromo-3-methylpyridin-2-yl)-5-(hydroxymethyl)-2-azabicyclo[3.1.0]hexane-3-carboxamide]

Row | SMILES | IC50 [µM]
4 | CC(=O)c1nn(CC(=O)N2[C@H](C(=O)NCCc3cc(Cl)ccc3Cl)C[C@@]3(C)C[C@@H]23)c2c(C)cc(-c3cnc(C)nc3)cc12 [Compound 4, (1R,3S,5R)-2-(2-(3-Acetyl-7-methyl-5-(2-methylpyrimidin-5-yl)-1H-indazol-1-yl)acetyl)-N-(2,5-dichlorophenethyl)-5-methyl-2-azabicyclo[3.1.0]hexane-3-carboxamide] | < 1

same assay, conditions: Human Factor D 80 nM, substrate Z-L-Lys-SBzl; Table 2; read-out: IC50 (Stars)

Row | SMILES | IC50 [µM]
5 | CC(=O)c1nn(CC(=O)N2C[C@H]3C[C@H]3[C@H]2C(=O)Nc2nc(Br)ccc2Cl)c2c(C)cc(-c3cnc(C(C)O)nc3)cc12 (stereo partly drawn) [Compound 166] | < 1
6 | CC(=O)c1nn(CC(=O)N2[C@H](C(=O)N[C@@H](C)C(F)(F)F)C[C@@]3(C)C[C@@H]23)c2c(C)cc(-c3cnc(C)nc3)cc12 [Compound 153, (1R,3S,5R)-2-{2-[3-acetyl-7-methyl-5-(2-methylpyrimidin-5-yl)indazol-1-yl]acetyl}-5-methyl-N-[(2S)-1,1,1-trifluoropropan-2-yl]-2-azabicyclo[3.1.0]hexane-3-carboxamide] | < 1
7 | CC(=O)c1nn(CC(=O)N2[C@H](C(=O)N[C@H](C)CC3CC3)C[C@@]3(C)C[C@@H]23)c2c(C)cc(-c3cnc(C)nc3)cc12 [Compound 133, (1R,3S,5R)-2-{2-[3-acetyl-7-methyl-5-(2-methylpyrimidin-5-yl)indazol-1-yl]acetyl}-N-[(2R)-1-cyclopropylpropan-2-yl]-5-methyl-2-azabicyclo[3.1.0]hexane-3-carboxamide] | < 1
8 | CC(=O)c1cn(CC(=O)N2[C@H](C(=O)Nc3nccc(C(F)(F)F)n3)C[C@@]3(C)C[C@@H]23)c2c(C)cc(-c3cnc(C)nc3)cc12 [Compound 235, (1R,3S,5R)-2-(2-(3-acetyl-7-methyl-5-(2-methylpyrimidin-5-yl)-1H-indol-1-yl)acetyl)-5-methyl-N-(4-(trifluoromethyl)pyrimidin-2-yl)-2-azabicyclo[3.1.0]hexane-3-carboxamide] | < 1
9 | Cc1ncc(-c2cc3c(C(N)=O)nn(CC(=O)N4[C@H](C(=O)Nc5nc(Br)c(F)cc5C)C[C@@]5(C)C[C@@H]45)c3c(CO)n2)cn1 [Compound 184, 1-(2-((1R,3S,5R)-3-((6-bromo-5-fluoro-3-methylpyridin-2-yl)carbamoyl)-5-methyl-2-azabicyclo[3.1.0]hexan-2-yl)-2-oxoethyl)-7-(hydroxymethyl)-5-(2-methylpyrimidin-5-yl)-1H-pyrazol[3,4-c]pyridine-3-carboxamide] | < 1
10 | CC(=O)c1nn(CC(=O)N2[C@H](C(=O)N[C@@H]3CCCCC34OCCO4)C[C@@]3(C)C[C@@H]23)c2c(C)cc(-c3cnc(C)nc3)cc12 (single isomer, unassigned) [Compound 136] | < 1
11 | CC(=O)c1cn(CC(=O)N2[C@H](C(=O)Nc3nc(C(F)(F)F)ccc3Cl)C[C@@]3(C)C[C@@H]23)c2c(C)cc(-c3cnc(C)nc3)cc12 [Compound 233, (1R,3S,5R)-2-(2-(3-acetyl-7-methyl-5-(2-methylpyrimidin-5-yl)-1H-indol-1-yl)acetyl)-N-(3-chloro-6-(trifluoromethyl)pyridin-2-yl)-5-methyl-2-azabicyclo[3.1.0]hexane-3-carboxamide] | < 1

Further lines, results first:

Row | IC50 [µM] | SMILES
12 | < 1 | CC(=O)c1cn(CC(=O)N2[C@H](C(=O)Nc3nc(Br)c(F)cc3C)C[C@@]3(C)C[C@@H]23)c2c(C)cc(-c3cnc(CF)nc3)cc12 [Compound 217, (1R,3S,5R)-2-(2-(3-acetyl-5-(2-(fluoromethyl)pyrimidin-5-yl)-7-methyl-1H-indol-1-yl)acetyl)-N-(6-bromo-5-fluoro-3-methylpyridin-2-yl)-5-methyl-2-azabicyclo[3.1.0]hexane-3-carboxamide]
13 | < 1 | CC(=O)c1nn(CC(=O)N2[C@H](C(=O)Nc3nc(Br)ccc3C)C[C@@]3(C)C[C@@H]23)c2c(C)cc(-c3cnc(C#N)nc3)cc12 [Compound 57, (1R,3S,5R)-2-(2-(3-acetyl-5-(2-cyanopyrimidin-5-yl)-7-methyl-1H-indazol-1-yl)acetyl)-N-(6-bromo-3-methylpyridin-2-yl)-5-methyl-2-azabicyclo[3.1.0]hexane-3-carboxamide]
14 | < 1 | CC(=O)c1nn(CC(=O)N2[C@H](C(=O)Nc3nc(Br)c(F)cc3C)C[C@@]3(C)C[C@@H]23)c2c(C)cc(-c3ccc(CO)nc3)cc12 [Compound 118, (1R,3S,5R)-2-(2-(3-acetyl-5-(6-(hydroxymethyl)pyridin-3-yl)-7-methyl-1H-indazol-1-yl)acetyl)-N-(6-bromo-5-fluoro-3-methylpyridin-2-yl)-5-methyl-2-azabicyclo[3.1.0]hexane-3-carboxamide]
15 | 1 to 10 | CC(=O)c1cn(CC(=O)N2[C@H](C(=O)Nc3cncc(Br)n3)C[C@@]3(C)C[C@@H]23)c2c(C)cc(-c3cnc(CF)nc3)cc12 [Compound 218, (1R,3S,5R)-2-(2-(3-acetyl-5-(2-(fluoromethyl)pyrimidin-5-yl)-7-methyl-1H-indol-1-yl)acetyl)-N-(6-bromopyrazin-2-yl)-5-methyl-2-azabicyclo[3.1.0]hexane-3-carboxamide]
16 | < 1 | CC(=O)c1nn(CC(=O)N2[C@H](C(=O)Nc3nc(Br)ccc3C)C[C@@]3(C)C[C@@H]23)c2c(C)cc(-c3cnc([C@@H](C)O)nc3)cc12 (single isomer, unassigned) [Compound 142]
17 | < 1 | COC(=O)c1ncc(-c2ccc3c(c2)c(C(C)=O)nn3CC(=O)N2[C@H](C(=O)Nc3nc(Br)ccc3C)C[C@@]3(C)C[C@@H]23)cn1 [Compound 46, methyl 5-(3-acetyl-1-(2-((1R,3S,5R)-3-((6-bromo-3-methylpyridin-2-yl)carbamoyl)-5-methyl-2-azabicyclo[3.1.0]hexan-2-yl)-2-oxoethyl)-1H-indazol-5-yl)pyrimidine-2-carboxylate]
18 | < 1 | CC(=O)c1nn(CC(=O)N2[C@H](C(=O)NCCc3ccn(C)n3)C[C@@]3(C)C[C@@H]23)c2c(C)cc(-c3cnc(C)nc3)cc12 [Compound 103, (1R,3S,5R)-2-{2-[3-acetyl-7-methyl-5-(2-methylpyrimidin-5-yl)indazol-1-yl]acetyl}-5-methyl-N-[2-(1-methylpyrazol-3-yl)ethyl]-2-azabicyclo[3.1.0]hexane-3-carboxamide]
